The values that follow are results of earlier work, collected in patent US12285420B2 (ACASTI PHARMA U.S., INC., priority 2018, dated 2025).

Each structure is given as a SMILES string. A value given as a limit tells only on which side of the number the result lay.

The conditions of data set [1]: nimodipine-treated subarachnoid hemorrhage (SAH) patients.
The conditions of data set [2]: man, oral administration.

As for `COCCOC(=O)C1=C(C)NC(C)=C(C(=O)OC(C)C)C1c1cccc([N+](=O)[O-])c1` (centres unmarked) [nimodipine, isopropyl 2-methoxyethyl 1,4-dihydro-2,6-dimethyl-4-(m-nitrophenyl)-3,5-pyridinedicarboxylate], in data set [1], the “Concentration of nimodipine detected in the cerebrospinal fluid” value is no more than 12.5 ng/mL. For the same compound, in data set [2], the “Half-life equivalent to earlier elimination rates” value is 1 to 2 h.
